Among the data in PubChem BioAssay (NCI) are TGI and GI50 values, retold here.

The structures appear in SMILES notation. Several values for one entry are separate records, joined by “and”; a condition that tells them apart may be missing. Equal entries are not always repeated.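 Dose response: 5 concentrations. Exposure: 48 h. Format: 96-well plates. Endpoint: linear interpolation; highest concentration if not reached. At the GI50, growth is halved. TGI marks complete inhibition of growth.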

One assay has as its system TK-10 renal. The experiment in a line: DTP human tumour cell line panel, 48 h.
For `COC1O[C@H]2CCN(C(=O)OCc3ccccc3)[C@H]2[C@H]1OCc1ccccc1` (stereo partly specified), the TGI is more than 100 µM.
Take `COc1ccc(N2C(=O)C3c4[nH]c5ccc([N+](=O)[O-])cc5c4C4CCC(C(C)(C)C)CC4C3C2=O)cc1` (stereo unspecified): the TGI is more than 100 µM.
Still for that read-out and setting: under `O=C(O)c1ccc(NC(c2ccccc2)c2ccc3cccnc3c2O)cc1` (stereo unspecified) stands 71.6 µM; under `COc1ccc(-c2c(C#N)c(N)n(C3OC(CO)C(O)C(O)C3O)c(=S)c2C#N)cc1` (stereo unspecified), more than 100 µM.
Consider `CCOC(=O)c1sc2nc(SC)nc3c2c1N=CN3c1ccc(Br)cc1`, for which the TGI is more than 100 µM.
Regarding `Cc1c(Cl)cccc1NC(=O)C(=O)C1C(=O)CC(C)(C)CC1=O`, the TGI was more than 100 µM.
Same read-out and setting: under `O=c1[nH]c2nc3ccccc3c(=O)n2/c1=C/c1ccc(O)cc1` stands more than 100 µM; under `CC[C@@H]1CC[C@@H]2[C@H](CC[C@]3(C)[C@@H](O)CC[C@@H]23)[C@H]1C(=O)O`, more than 100 µM.
Still for that read-out and setting: under `Nc1nc(Cl)cc(NCC2(CO)CC(CCc3ccccc3)C2)n1` (stereo unspecified) stands more than 100 µM; under `O=c1c2ccccc2[nH]c(=S)n1-c1ccc(N=Nc2cccc3c(O)cccc23)cc1`, more than 100 µM.
The compound `N#C/C(=C\NC(=S)Nc1ccc(S(=O)(=O)Nc2ccccn2)cc1)C(N)=O` showed a TGI of more than 100 µM.
With `CC(=O)NC1C(OCc2ccccc2)OC(CO)C(O)C1OCC(=O)N[C@@H](C)C(=O)N[C@H](CCC(=O)NCCNCCNc1c2ccccc2nc2cccc([N+](=O)[O-])c12)C(N)=O` (stereo partly specified), the TGI is more than 100 µM.
On to `c1cc2nnc1SCCSCCSc1ccc(nn1)SCCSCCS2`, for which the TGI was more than 100 µM.
On to `COc1ccc(-c2c(C#N)c(S)n(C3OC(COC(C)=O)C(OC(C)=O)C(OC(C)=O)C3OC(C)=O)c(=O)c2C#N)cc1` (stereo unspecified), for which the TGI is > 100 µM and 92.2 µM.

For the next assay, the system named is CAKI-1 renal. The experiment in a line: DTP human tumour cell line panel, 48 h.
For `CCC(=O)C(c1ccccc1)c1ccccn1` (stereo unspecified), the TGI was more than 100 µM.
With `CCCN=C1CC(C)Nc2ccccc2N1` (stereo unspecified), the TGI is more than 100 µM.
`Cc1ccc(-c2cc(N)n(-c3nc4c([nH]3)c(=O)n(C)c(=O)n4C)n2)cc1` displayed a TGI of 13.4 µM.
In turn, `Cc1sc2nc3n(c(=O)c2c1C)N=CN(c1ccccc1)C3` came in with a TGI of more than 100 µM.
In turn, `COC1O[C@H]2CCN(C(=O)OCc3ccccc3)[C@H]2[C@H]1OCc1ccccc1` (stereo partly specified) gave a TGI of more than 100 µM.
Regarding `COc1ccc(N2C(=O)C3c4[nH]c5ccc([N+](=O)[O-])cc5c4C4CCC(C(C)(C)C)CC4C3C2=O)cc1` (stereo unspecified), the total growth inhibition concentration (TGI) is more than 100 µM.
The compound `O=C(O)c1ccc(NC(c2ccccc2)c2ccc3cccnc3c2O)cc1` (stereo unspecified) displayed a TGI of 59.2 µM.
The same measure, in the same setting: in the case of `COc1ccc(-c2c(C#N)c(N)n(C3OC(CO)C(O)C(O)C3O)c(=S)c2C#N)cc1` (stereo unspecified) it was more than 100 µM; in that of `CCOC(=O)c1sc2nc(SC)nc3c2c1N=CN3c1ccc(Br)cc1`, more than 100 µM; in that of `Cc1c(Cl)cccc1NC(=O)C(=O)C1C(=O)CC(C)(C)CC1=O`, more than 100 µM.
For `O=c1[nH]c2nc3ccccc3c(=O)n2/c1=C/c1ccc(O)cc1`, the TGI was more than 100 µM.
On the same count and under the same terms, under `CC[C@@H]1CC[C@@H]2[C@H](CC[C@]3(C)[C@@H](O)CC[C@@H]23)[C@H]1C(=O)O` stands more than 100 µM.
For the compound `Nc1nc(Cl)cc(NCC2(CO)CC(CCc3ccccc3)C2)n1` (stereo unspecified), the TGI is more than 100 µM.
`O=c1c2ccccc2[nH]c(=S)n1-c1ccc(N=Nc2cccc3c(O)cccc23)cc1` came in with a total growth inhibition concentration (TGI) of more than 100 µM.
Still for that read-out and setting: in the case of `N#C/C(=C\NC(=S)Nc1ccc(S(=O)(=O)Nc2ccccn2)cc1)C(N)=O` it was more than 100 µM.
Take `CC(=O)NC1C(OCc2ccccc2)OC(CO)C(O)C1OCC(=O)N[C@@H](C)C(=O)N[C@H](CCC(=O)NCCNCCNc1c2ccccc2nc2cccc([N+](=O)[O-])c12)C(N)=O` (stereo partly specified): the concentration for total growth inhibition (TGI) was 69 µM. That is a double-digit micromolar value.
Take `c1cc2nnc1SCCSCCSc1ccc(nn1)SCCSCCS2`: the TGI was more than 100 µM.
As to `COc1ccc(-c2c(C#N)c(S)n(C3OC(COC(C)=O)C(OC(C)=O)C(OC(C)=O)C3OC(C)=O)c(=O)c2C#N)cc1` (stereo unspecified), the concentration for total growth inhibition (TGI) was 56.4 µM and 98.8 µM.

The subject of a further assay is U251 CNS. The assay is described as follows: DTP human tumour cell line panel, 48 h.
For `CCC(=O)C(c1ccccc1)c1ccccn1` (stereo unspecified), the concentration for total growth inhibition (TGI) was more than 100 µM.
With `CCCN=C1CC(C)Nc2ccccc2N1` (stereo unspecified), the TGI is more than 100 µM.
Turning to `Cc1ccc(-c2cc(N)n(-c3nc4c([nH]3)c(=O)n(C)c(=O)n4C)n2)cc1`, the concentration for total growth inhibition (TGI) is more than 100 µM.
`Cc1sc2nc3n(c(=O)c2c1C)N=CN(c1ccccc1)C3` registered a TGI of more than 100 µM.
Same read-out and setting: in the case of `COC1O[C@H]2CCN(C(=O)OCc3ccccc3)[C@H]2[C@H]1OCc1ccccc1` (stereo partly specified) it was more than 100 µM; in that of `COc1ccc(N2C(=O)C3c4[nH]c5ccc([N+](=O)[O-])cc5c4C4CCC(C(C)(C)C)CC4C3C2=O)cc1` (stereo unspecified), 90.7 µM; in that of `O=C(O)c1ccc(NC(c2ccccc2)c2ccc3cccnc3c2O)cc1` (stereo unspecified), more than 41.2 µM.
On the same count and under the same terms, in the case of `COc1ccc(-c2c(C#N)c(N)n(C3OC(CO)C(O)C(O)C3O)c(=S)c2C#N)cc1` (stereo unspecified) it was more than 100 µM; in that of `CCOC(=O)c1sc2nc(SC)nc3c2c1N=CN3c1ccc(Br)cc1`, more than 100 µM; in that of `Cc1c(Cl)cccc1NC(=O)C(=O)C1C(=O)CC(C)(C)CC1=O`, more than 100 µM.
`O=c1[nH]c2nc3ccccc3c(=O)n2/c1=C/c1ccc(O)cc1` displayed a total growth inhibition concentration (TGI) of 83.6 µM.
On the same count and under the same terms, under `CC[C@@H]1CC[C@@H]2[C@H](CC[C@]3(C)[C@@H](O)CC[C@@H]23)[C@H]1C(=O)O` stands more than 100 µM; under `Nc1nc(Cl)cc(NCC2(CO)CC(CCc3ccccc3)C2)n1` (stereo unspecified), more than 100 µM.
The compound `O=c1c2ccccc2[nH]c(=S)n1-c1ccc(N=Nc2cccc3c(O)cccc23)cc1` yielded a total growth inhibition concentration (TGI) of more than 100 µM.
Take `N#C/C(=C\NC(=S)Nc1ccc(S(=O)(=O)Nc2ccccn2)cc1)C(N)=O`: the concentration for total growth inhibition (TGI) is more than 100 µM.
In the case of `CC(=O)NC1C(OCc2ccccc2)OC(CO)C(O)C1OCC(=O)N[C@@H](C)C(=O)N[C@H](CCC(=O)NCCNCCNc1c2ccccc2nc2cccc([N+](=O)[O-])c12)C(N)=O` (stereo partly specified), the TGI was more than 100 µM.
`c1cc2nnc1SCCSCCSc1ccc(nn1)SCCSCCS2` yielded a TGI of more than 100 µM.
As for `COc1ccc(-c2c(C#N)c(S)n(C3OC(COC(C)=O)C(OC(C)=O)C(OC(C)=O)C3OC(C)=O)c(=O)c2C#N)cc1` (stereo unspecified), the GI50 is 36.8 µM and 75.2 µM; the TGI is more than 100 µM.

By TGI is commonly meant the concentration at which net growth stops. Low readings indicate greater sensitivity of the cells, high ones lower sensitivity of the cells. As usually defined, the GI50 is the concentration giving 50% growth inhibition.
